Counter-ions that a name gives are not always drawn.
Legend:
MDA-MB-231 cells [1] = experiment: Colony formation (clonogenic) assay; type: cell-based, human; conditions: Homo sapiens; MDA-MB-231, concentration 2 μM; read-out: Inhibition of colony growth, % of the control
Experimental: The influence of glycosides on the proliferation of MDA-MB-231 cells was analyzed by clonogenic assay. Briefly, MDA-MB-231 cells were cultured on 6-well plates at a density of 1 × 10^3 cells per well in control media (MEM media, 10% FBS, 10,000 U/mL of penicillin and 10,000 μg/mL of streptomycin) or in media supplemented with different concentrations of glycosides. Cells were incubated for one week at 37 °C with 5% CO2 until the cells in the control plates formed colonies that were visible to the eye and were of a substantial size (at least 50 cells per colony). For fixation and staining, the media were removed and the cells were washed twice with PBS. The colonies were fixed with methanol for 25 min, then washed with PBS and stained with 0.5% crystal violet solution for 25 min at room temperature. The plates were then washed with water and air dried.

[2] = Cytotoxic activity (MTS assay); type: cell-based, human; conditions: human
Experimental: (§1) Then, the cells were incubated with 10 µL MTS ([3-(4,5-dimethylthiazol-2-yl)-5-(3-carboxymethoxyphenyl)-2-(4-sulfophenyl)-2H-tetrazolium) for 4 h, and the absorbance in each well was determined at 490/630 nm with a PHERA star FS plate reader (BMG Labtech, Ortenberg, Germany). The experiments were conducted in triplicate.

[3] = Cytotoxic activity (MTT assay); type: cell-based, human; conditions: human
Experimental: (§2) After incubation, the glycosides with medium were replaced by 100 μL of fresh medium. Then, 10 μL of MTT (3-(4,5-dimethylthiazol-2-yl)-2,5-diphenyltetrazolium bromide) (Sigma-Aldrich, St. Louis, MO, USA) stock solution (5 mg/mL) was added to each well, followed by incubation of the microplate for 4 h. After this procedure, 100 μL of SDS-HCl solution (1 g SDS/10 mL d-H2O/17 μ[…] HCl) was added to each well and incubated for 18 h. The absorbance of the converted dye formazan was determined with a Multiskan FC microplate photometer (Thermo Fisher Scientific, Waltham, MA, USA) at 570 nm.

MDA-MB-231 cells [4] = experiment: Wound scratch migration assay; type: cell-based, human
Excerpt: To analyze the influence of the tested compounds on tumor cell migration, MDA-MB-231 cells attached to the plate’s plastic bottom were separated by a silicone insert from special migration plates (Culture-insert 2 Well 24, ibiTreat); then, the insert was removed, leaving a gap of 500 ± 50 μm (according to the manufacturer’s data) between the cells. The cells were washed twice by PBS to remove cell debris and floating cells and loaded with a fluorescent probe, a (5,6)-carboxyfluorescein succinimidyl ester (CFDA SE) dye (LumiTrace CFDA SE kit, Lumiprobe, Moscow, Russia). The initial solution of CFDA SE at a concentration of 5 mM in DMSO was dissolved in PBS to prepare a 10 μM solution and was added to the cells for 5 min at 37 °C; then, the cells were washed twice with PBS, and fresh culture medium was added. After that, the cells were treated with various concentrations of glycosides and left for 8 and 24 h. Cells treated with culture medium only were used as control. Cell migration into the wound area was then observed under a fluorescence microscope (MIB-2-FL, LOMO, Saint Peterburg, Russia) with an objective ×10 magnification.

human erythrocytes = experiment: Hemolytic activity; type: cell-based; conditions: for ED50, Erythrocytes: 1 h incubation at 37 °C, 50% hemolysis
Experimental: Erythrocytes were obtained from human blood (AB(IV) Rh+) by centrifugation with phosphate-buffered saline (PBS) (pH 7.4) at 4 °C for 5 min by 450 g on a LABOFUGE 400R centrifuge (Heraeus, Hanau, Germany) three times. Then, the erythrocytes residue was resuspended in ice cold phosphate saline buffer (pH 7.4) to a final optical density of 1.5 at 700 nm and kept on ice. For the hemolytic assay, 180 µL of erythrocyte suspension was mixed with 20 µL of test compound solution, as well as control, chitonoidoside L [33], in V-bottom 96-well plates. After 1 h of incubation at 37 °C, the plates were exposed to centrifugation for 10 min at 900 g in a laboratory LMC-3000 centrifuge (Biosan, Riga, Latvia). Then, 100 µL of supernatant was carefully decanted and transferred into new flat plates. The values of the lysis of the erythrocytes were found by measuring the concentration of hemoglobin in the supernatant with a Multiskan FC microplate photometer (Thermo Fisher Scientific, Waltham, MA, USA); λ = 570 nm. […] All the experiments were carried out in triple repetitions; p < 0.01.

cancer cell lines = experiment: Cytotoxic action against cancer cell lines (summary in words); type: cell-based, human; conditions: cancer cell lines HL-60, MCF-7, T-47D, MDA-MB-231
Experimental: All the substances were tested in concentrations from 0.1 µM to 50 µM. Cisplatin was used as positive control. The cell suspension (180 µL) and solutions (20 µL) of tested glycosides in different concentrations were injected in wells of 96-well plates (MCF-7, T-47D, MDA-MB-231, and HEK293—7 × 10^3 cells/well) and incubated at 37 °C for 24 h in an atmosphere with 5% CO2. Glycosides 1 and 2, cucumarioside A0-1, and okhotoside A1-1 at concentrations of 1.25–10.0 μM were incubated with MDA-MB-231 cells at 37 °C for 24, 48, and 72 h in an atmosphere with 5% CO2. After incubation, the glycosides with medium were replaced by 100 µL of fresh medium. Then, 10 µL of MTT (3-(4,5-dimethylthiazol-2-yl)-2,5-diphenyltetrazolium bromide) (Sigma-Aldrich, St. Louis, MO, USA) stock solution (5 mg/mL) was added to each well, followed by incubation of the microplate for 4 h. After this procedure, 100 µL of SDS-HCl solution (1 g SDS/10 mL d-H2O/17 µL 6 N HCl) was added to each well and incubated for 18 h. The absorbance of the converted dye formazan was determined with a Multiskan FC microplate photometer (Thermo Fisher Scientific, Waltham, MA, USA) at 570 nm. […] The experiments were conducted in triplicate; p < 0.05.
as §1, with “triplicate. The results were presented as the percentage of inhibition that produced a reduction in absorbance after tested glycosides treatment compared to the nontreated cells (negative control); p < 0.01.” for “triplicate.”

[5] = Cytotoxic activity (MTT assay); type: cell-based, human; conditions: human; remark: listed apart in the source
Experimental: as §2

[6] = Cytotoxic activity (MTT assay); type: cell-based, human; conditions: human; remark: listed apart in the source
Experimental: as §2

[7] = Cytotoxic activity (MTT assay); type: cell-based, human; conditions: human; remark: listed apart in the source
Experimental: as §2

SMILES | inhibition at 2 µM (MDA-MB-231 cells [1]) [%] | IC50 at 24 h [2] [µM] | EC50 at 48 h [3] [µM] | EC50 at 72 h [3] [µM] | inhibition at 2 µM (MDA-MB-231 cells [4]; Homo sapiens, MDA-MB-231, 2 μM, 24 h incubation, read-out: Inhibition of migration as compared to control) [%] | ED50, Erythrocytes (human erythrocytes) [µM] | Activity against cancer cells (in words) (cancer cell lines) | IC50 at 24 h [5] [µM] | IC50 at 24 h [6] [µM] | IC50 at 24 h [7] [µM] | IC50 at 24 h [3] [µM] | Hemolytic action (in words) (human erythrocytes) | Blockage of migration in relation to control (MDA-MB-231 cells [4]; MDA-MB-231, 1 μM, 24 h) [%]
CO[C@@H]1[C@@H](O)[C@H](O[C@@H]2[C@@H](O)[C@H](O[C@H]3[C@H](O)[C@@H](O)[C@H](O[C@H]4[C@H](O[C@H]5CC[C@]6(C)[C@@H]7CCC89C(=O)O[C@@](C)([C@H](O)C(=O)CC(C)C)[C@H]8[C@@H](OC(C)=O)C[C@@]9(C)C7=CC[C@H]6C5(C)C)OC[C@@H](OS(=O)(=O)O)[C@@H]4O)O[C@@H]3C)OC[C@H]2O)O[C@H](CO)[C@H]1O (stereo partly drawn) [djakonovioside A1 (2), 3β-O-[3-O-methyl-β-D-glucopyranosyl-(1→3)-β-D-xylopyranosyl-(1→4)-β-D-quinovopyranosyl-(1→2)-4-O-sodium sulfate-β-D-xylopyranosyl}-16β-acetoxy,22S-hydroxy,23-oxo-holost-7-en] | 19.2 ± 0.25 | 4.44 ± 0.37 | 7.33 | 6.25 | 79.5 ± 9.12 | 2.26 ± 0.25 |  |  |  |  |  |  | 
COC1C(O)C(CO)OC(OC2C(O)COC(OC3C(C)OC(OC4C(OC5CCC6(C)C7CCC89C(=O)OC%10(C)C(O)C(O)(CC(C)C)OC(CC8(C)C7=CCC6C5(C)C)C%109)OCC(OS(=O)(=O)O)C4O)C(OC4OCC(O)C(O)C4O)C3O)C2O)C1O [djakonovioside B4 (7), 3β-O-{3-O-methyl-β-D-glucopyranosyl-(1→3)-β-D-xylopyranosyl-(1→4)-[(1→2)-β-D-xylopyranosyl]-β-D-quinovopyranosyl-(1→2)-4-O-sodium sulfate-β-D-xylopyranosyl}-22S-hydroxyholost-7-en-23R,16β-hemiketal] |  | > 50 |  |  |  | 17.07 ± 1.15 | inactive | > 50 | > 50 | > 50 | > 50 | moderately hemolytic | 
CO[C@@H]1[C@@H](O)[C@H](O[C@@H]2[C@@H](O)[C@H](O[C@H]3[C@H](O)[C@@H](O[C@@H]4OC[C@@H](O)[C@H](O)[C@H]4O)[C@H](O[C@H]4[C@H](O[C@H]5CC[C@]6(C)[C@@H]7CCC89C(=O)O[C@@](C)([C@H](O)C(=O)CC(C)C)[C@H]8[C@@H](OC(C)=O)C[C@@]9(C)C7=CC[C@H]6C5(C)C)OC[C@@H](OS(=O)(=O)O)[C@@H]4O)O[C@@H]3C)OC[C@H]2O)O[C@H](CO)[C@H]1O (stereo partly drawn) [djakonovioside B1 (4), 3β-O-{3-O-methyl-β-D-glucopyranosyl-(1→3)-β-D-xylopyranosyl-(1→4)-[(1→2)-β-D-xylopyranosyl]-β-D-quinovopyranosyl-(1→2)-4-O-sodium sulfate-β-D-xylopyranosyl}-16β-acetoxy,22S-hydroxy,23-oxo-holost-7-en] |  | 20.1 ± 0.8 |  |  |  | 6.03 ± 0.47 |  |  |  |  |  |  | 
CO[C@@H]1[C@@H](O)[C@H](O[C@@H]2[C@@H](O)[C@H](O[C@H]3[C@H](O)[C@@H](O)[C@H](O[C@H]4[C@H](O[C@H]5CC[C@]6(C)[C@@H]7CCC89C(=O)O[C@@](C)(C[C@@H](O)CC(C)C)[C@H]8[C@@H](OC(C)=O)C[C@@]9(C)C7=CC[C@H]6C5(C)C)OC[C@@H](OS(=O)(=O)O)[C@@H]4O)O[C@@H]3C)OC[C@H]2O)O[C@H](CO)[C@H]1O (stereo partly drawn) [djakonovioside A (1), 3β-O-[3-O-methyl-β-D-glucopyranosyl-(1→3)-β-D-xylopyranosyl-(1→4)-β-D-quinovopyranosyl-(1→2)-4-O-sodium sulfate-β-D-xylopyranosyl}-16β-acetoxy,23S-hydroxyholost-7-en] | 41.4 ± 3.16 | 6.05 ± 0.17 | 4.45 | 3.77 |  | 2.46 ± 0.22 |  |  |  |  |  |  | 79.92 ± 0.27
COC1C(O)C(CO)OC(OC2C(O)COC(OC3C(C)OC(OC4C(OC5CCC6(C)C7CCC89C(=O)OC%10(C)C(O)C(O)(CC(C)C)OC(CC8(C)C7=CCC6C5(C)C)C%109)OCC(OS(=O)(=O)O)C4O)C(O)C3O)C2O)C1O [djakonovioside A2 (3), 3β-O-[3-O-methyl-β-D-glucopyranosyl-(1→3)-β-D-xylopyranosyl-(1→4)-β-D-quinovopyranosyl-(1→2)-4-O-sodium sulfate-β-D-xylopyranosyl}-22S-hydroxyholost-7-en-23R,16β-hemiketal] |  | > 50 |  |  |  | 30.86 ± 0.97 | inactive | > 50 | > 50 | > 50 | > 50 | moderately hemolytic | 
COC1C(O)C(CO)OC(OC2C(O)COC(OC3C(C)OC(OC4C(OC5CCC6(C)C7CCC89C(=O)OC%10(C)CC(O)(CC(C)C)OC(CC8(C)C7=CCC6C5(C)C)C%109)OCC(OS(=O)(=O)O)C4O)C(OC4OCC(O)C(O)C4O)C3O)C2O)C1O [djakonovioside B2 (5), 3β-O-{3-O-methyl-β-D-glucopyranosyl-(1→3)-β-D-xylopyranosyl-(1→4)-[(1→2)-β-D-xylopyranosyl]-β-D-quinovopyranosyl-(1→2)-4-O-sodium sulfate-β-D-xylopyranosyl}-holost-7-en-23R,16β-hemiketal] |  | 38.6 ± 1.05 |  |  |  | 16.34 ± 0.34 | inactive |  |  |  |  | moderately hemolytic | 

From article PMC10342010, “Djakonoviosides A, A1, A2, B1–B4 — Triterpene Monosulfated Tetra- and Pentaosides from the Sea Cucumber Cucumaria djakonovi: The First Finding of a Hemiketal Fragment in the Aglycones; Activity against Human Breast Cancer Cell Lines” (International Journal of Molecular Sciences, 2023)
